Among the data in patent US8673910B2, “Proteasome inhibitors for selectively inducing apoptosis in cancer cells” (H. Lee Moffitt Cancer Center and Research Institute, priority 2008, dated 2014) are IC50 values, retold here.

Molecules are shown by their SMILES. Where “and” joins values, the source holds several entries; their conditions need not be identical. Equal values may be shown once.

Test [1] concerns primary multiple myeloma cells isolated from patients' bone marrow. Put plainly: Cell death of primary multiple myeloma cells (Trypan blue). In kind it is cell-based, human. The following applies: read-out: Cell death 24 h (IC50 values); primary MM cells, 24 h treatment; Table 5: one value per patient; mean over patients. The procedure: MM patients' bone marrow samples were collected from Liquid Tissue Bank facility. Freshly isolated bone marrow samples were fractionated by Ficoll-Paque (Pharmacia Biotech, Piscataway, N.J.) sedimentation. The mononuclear cellular layer was then resuspended in RPMI-1640 containing 10% heat-inactivated fetal bovine serum, 10 mM HEPES (pH 7.4), sodium pyruvate, L-glutamine, and 1% penicillin-streptomycin.
Adherent cells were harvested using trypsinization and pooled with suspension cells from media supernatant by pelleting at 300 g for 5 min at 4° C. The cells were then resuspended in an appropriate volume of media by pipetting gently up and down. Two 20 μl aliquots were removed and combined with an equal volume of 0.4% Trypan blue and allowed to mix for 1 minute. A 10 μl volume was loaded onto a hemacytometer and cells were scored as live or dead based on Trypan blue dye exclusion and the percentage of dead cell number to total cell number was calculated. To calculate the percentage of proliferation, the number of live cells in the treated samples was divided by the number of live cells in the untreated vehicle control.

Test [2] concerns the target T1, PGPH activity of purified 20S rabbit proteasome (Oryctolagus cuniculus, UniProt A0A5F9DQW2).
T1 construct: purchased Boston Biochem
Put plainly: Proteolytic activity of purified 20S proteasome, fluorogenic substrate Z-Leu-Leu-Glu-AMC. The following applies: Table 4: means of 3 experiments ± standard error, read-out: IC50 for PGPH-like activity in vitro. In kind it is biochemical. On the procedure:
In the high-throughput screen, the inventors used fluorogenic peptides as substrates to assay 3,229 compounds of the NCI Diversity, Natural Product, Challenge and Mechanistic Sets for inhibitory activity against the proteolytic activities of the purified 20S proteasome, resulting in the identification of PI-083. […] After incubation, production of hydrolyzed 7-amido-4-methyl-coumarin (AMC) groups was measured using a WALLAC Victor^2 1420 Multilabel Counter with an excitation filter of 355 nm and an emission filter of 460 nm (Perkin Elmer Life Sciences, Turku, Finland).

T1 sequence (A0A5F9DQW2 1-212): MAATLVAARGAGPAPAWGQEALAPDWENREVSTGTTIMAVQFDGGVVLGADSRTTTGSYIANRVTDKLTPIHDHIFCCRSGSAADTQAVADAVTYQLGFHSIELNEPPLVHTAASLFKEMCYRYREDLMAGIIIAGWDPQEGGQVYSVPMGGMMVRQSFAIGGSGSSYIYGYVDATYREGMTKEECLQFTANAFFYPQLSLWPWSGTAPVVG

Take `O=C1C(Cl)=C(Nc2ccc(S(=O)(=O)Nc3ccccn3)cc2)C(=O)c2ccccc21` [PI-083, 4-(3-chloro-1,4-dioxo-1,4-dihydronaphthalen-2-ylamino)-N-(pyridin-2-yl)benzenesulfonamide]: in test [1], the IC50 is 6200 nM and 2700 nM and 1100 nM and 2400 nM and 1700 nM and 4100 nM and 9000 nM and 7300 nM and 3200 nM.

Consider `CC(C)C[C@H](NC(=O)[C@H](Cc1ccccc1)NC(=O)c1cnccn1)B(O)O` [Bortezomib, reference compound], for which the IC50 in test [2] is 475 nM.
